Like-named read-outs stand apart in the source and are kept apart here.

Holding throughout (type): cell-based
In data set [1] the test system is Lactobacillus plantarum HAC03. The data set is described as follows: in vitro Simulated Stomach Duodenum Passage (SSDP) probiotic survivability, lyophilized HAC03. The conditions noted are these: for viability at 100000 µM: Lactiplantibacillus plantarum. As to the method:
The HAC03 strain was mixed with each of the single compositions and 1 mL of distilled water for 1 min. The compositions were formulated to have a final concentration of 0.1 M when dissolved in 1 ml of distilled water. Thereafter, 9 mL of distilled water adjusted to have a pH of 2.5 was added to each mixture. The pH was readjusted back to 2.5 in case of an increased pH due to the nature of some of the single ingredients (in order to not affect the survival of the probiotics). After adjusting the pH to 2.5, the tubes were incubated at 37° C. for 1 hour to apply the low-pH gastric stress condition. […] During the gastrointestinal tract assay, the samples were taken immediately, 1 hour, and […] after the incubation (t=0, 1, and 2). The probiotic survivability of each sample after gastric stress and bile stress was calculated by counting viable colonies.

For data set [2], the system named is Lactobacillus casei Lc-11. The data set is described as follows: Bacterial adhesion to human enterocyte-like Caco-2/TC-7 cell line, lyophilized Lc-11. The conditions noted are these: 0.03 M, compared to the freeze-dried form. The source says:
(§1) An examination was made to see whether the effect of reactivating lyophilized probiotics is applicable to various strains in this experimental example. In this regard, lyophilized Bifidobacterium longum Bl-05 (Dupont; hereinafter referred to as “Bl-05”), Lactobacillus plantarum Lp-115 (Dupont; hereinafter referred to as “Lp-115”), Lactobacillus casei Lc-11 (Dupont; hereinafter referred to as “Lc-11”), and 7-strain mixture (400B) (Dupont; hereinafter referred to as “MIX”) were reactivated with L-lysine and then assayed for their ability to adhere to the human enterocyte-like Caco-2/TC-7 cell line.
(§2) Lyophilizates of the three strains and the 7-strain mix were adjusted to 2×10^8 CFU/g and mixed with 0.03 M L-lysine or 0.03 M proline. The pellets were washed three time with 1× PBS and resuspended in 10 ml MEM cell culture media supplemented with 20% FBS, 2 mM glutamine, and 1% non-essential amino acids. A bacterial adhesion assay was performed according to the method of Botes et al. (Arch. Microbiol, 190 (2008), pp. 573-584) with some modifications. […] To quantify the number of bacteria attached to Caco-2/TC-7 cells, the samples were serially diluted, incubated on MRS agar plates for 48 hours (37° C.), and then counted to measure relative adhesion ratio (counts of attached bacteria in test groups to counts of attached bacteria in the control). […]

The test system of data set [3] is Bifidobacterium longum Bl-05. Kind of data set: Bacterial adhesion to human enterocyte-like Caco-2/TC-7 cell line, lyophilized Bl-05. The conditions noted are these: 0.03 M, compared to the freeze-dried form.
Source text: as §1, §2

The test system of data set [4] is Lactobacillus plantarum Lp-115. The data set is described as follows: Bacterial adhesion to human enterocyte-like Caco-2/TC-7 cell line, lyophilized Lp-115. The conditions noted are these: 0.03 M; L-lysine compared to the freeze-dried form, proline compared to L-lysine-reactivated.
Source text: as §1, §2

The test system of a further data set is 7-strain mixture (400B). Kind of data set: Bacterial adhesion to human enterocyte-like Caco-2/TC-7 cell line, lyophilized 7-strain mixture. The conditions noted are these: 0.03 M, compared to the freeze-dried form.
Source text: as §1, §2

The test system of data set [5] is Lactobacillus plantarum HAC03. Kind of data set: Zeta potential of lyophilized probiotics mixed with single ingredients (screening). The conditions noted are these: 0.1 M ingredient, rehydrated 1 min, pH 2.5. As to the method: In this experimental example, Lactobacillus plantarum HAC03 (accession number: KCTC13242BP, the Korean Research Institute of Bioscience and Biotechnology) (hereinafter referred to as “HAC03”), which was described in Korean Patent Application No. 10-2017-0051574, was used as a probiotic strain.
Afterwards, 2 mL of pH 2.5 distilled water was added to each sample, the pH was re-adjusted using HCl 0.1 N, and 800 μl of the calibrated sample was loaded in DTS1080 cuvettes. The electrophoretic mobility was measured by the Zetaizer Nano ZEN 3600 (Malvern Panalytica, UK) after 2 minutes of equilibration and the Smoluchowski equation was used to convert the data into zetapotential values.
In this experiment, zeta potentials were measured at a pH of 2.5 in consideration of the highly acidic stomach environment, which is one of the initial hurdles that drastically reduce the survivability of the bacteria.

Consider `Cl.NCCCC[C@H](N)C(=O)O` [L-Lysine hydrochloride, L-lysine hydrochloride], for which the viability at 100000 µM was 85.2% in data set [1] (HAC03, 1 h, pH 2.5, read-out: Stomach Survivability (%)) and 48.4% in data set [1] (HAC03, 2 h, pH 6, read-out: Duodenum Survivability (%)). In data set [1] (Table 1, 0.1 M ingredient, pH 2.5, 37° C., 1 hour), the “Stomach log CFU/mL” value is recorded as 7.87 ± 0.07 log CFU/mL. In addition, the “Duodenum log CFU/mL” value in data set [1] (Table 1, 0.1 M ingredient, then bile salts (10% ox gall) and pH 6.0 synthetic duodenum juice, 2 hours) is given as 7.62 ± 0.09 log CFU/mL. Further, the “intestinal survivability (acid resistance and bile resistance) in words” value in data set [1] (Table 1, compared to fresh bacteria / distilled water) was “increased in acid resistance and bile resistance”. Further, the “bacterial cell adhesion to Caco-2/TC-7 (FIGS. 2A and 2E), in words” value in data set [2] is reported as “significantly increased bacterial cell adhesion”. The “bacterial cell adhesion to Caco-2/TC-7 (FIGS. 2B and 2F), in words” value in data set [3] is reported as “significantly increased bacterial cell adhesion”. The “bacterial cell adhesion to Caco-2/TC-7 (FIGS. 2C and 2G), in words” value in data set [4] is “significantly increased bacterial cell adhesion”. The “bacterial cell adhesion to Caco-2/TC-7 (FIGS. 2D and 2H), in words” value with 7-strain mixture (400B) is on record as “significantly increased bacterial cell adhesion”. Also, the “zeta potential of lyophilized HAC03 mixed with the ingredient (sign, FIG. 1)” value in data set [5] is “negative zeta potentials”.
In the case of `O=C(O)[C@@H]1CCCN1` [proline, reference compound], the “bacterial cell adhesion to Caco-2/TC-7 (FIGS. 2A and 2E), in words” value in data set [2] was “remarkably lower in adhesion”. The “bacterial cell adhesion to Caco-2/TC-7 (FIGS. 2B and 2F), in words” value in data set [3] is listed as “remarkably lower in adhesion”. In addition, the “bacterial cell adhesion to Caco-2/TC-7 (FIGS. 2C and 2G), in words” value in data set [4] was “remarkably lower in adhesion”. Besides, the “bacterial cell adhesion to Caco-2/TC-7 (FIGS. 2D and 2H), in words” value in the data set with 7-strain mixture (400B) was “remarkably lower in adhesion”. Moreover, in data set [5], the “zeta potential of lyophilized HAC03 mixed with the ingredient (sign, FIG. 1)” value is listed as “positive zeta potentials”.
